Article PMC7914639, “Antioxidant, Pancreatic Lipase Inhibitory, and Tyrosinase Inhibitory Activities of Extracts of the Invasive Plant Spartina anglica (Cord-Grass)” (Antioxidants, 2021)

Columns and labels:
[1] = molecular target: T1, porcine pancreatic lipase (Sus scrofa, UniProt P00591); test: Pancreatic lipase inhibition assay (p-NPB hydrolysis); assay type: biochemical; settings: for inhibition at 10 µg/mL: 10 μg/mL; for inhibition at 25 µg/mL: 25 μg/mL; for inhibition at 50 µg/mL: 50 μg/mL
T1 construct: purchased Sigma-Aldrich (St. Louis, MO, USA) Type II
T1 sequence (P00591 1-450): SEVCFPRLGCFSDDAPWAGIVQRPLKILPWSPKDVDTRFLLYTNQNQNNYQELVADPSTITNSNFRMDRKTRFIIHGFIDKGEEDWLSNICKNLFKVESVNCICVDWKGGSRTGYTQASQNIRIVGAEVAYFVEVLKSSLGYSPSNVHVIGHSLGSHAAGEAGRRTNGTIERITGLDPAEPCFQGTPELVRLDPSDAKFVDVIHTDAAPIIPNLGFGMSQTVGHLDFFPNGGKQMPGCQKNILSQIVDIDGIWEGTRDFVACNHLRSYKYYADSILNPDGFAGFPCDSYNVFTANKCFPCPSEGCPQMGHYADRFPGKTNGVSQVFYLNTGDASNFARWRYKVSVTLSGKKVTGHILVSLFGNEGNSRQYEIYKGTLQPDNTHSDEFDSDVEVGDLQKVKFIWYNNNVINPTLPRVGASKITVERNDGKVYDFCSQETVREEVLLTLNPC
Procedure: Pancreatic lipase activity was measured using the method previously reported by Kim et al.. An enzyme buffer was prepared by the addition of 6 μL of porcine pancreatic lipase solution (Sigma-Aldrich, St. Louis, MO, USA) in a buffer (10 mM morpholinepropanesulfonic acid and 1 mM EDTA, pH 6.8) to Tris buffer (169 μL, 100 mM Tris-HCl, and 5 mM CaCl2, pH 7.0). […] The enzymatic reaction mixtures were incubated at 37 °C for 35 min. Pancreatic lipase activity was determined by measuring the hydrolysis of p-NPB to p-nitrophenol, with absorption being recorded at 405 nm using a microplate reader (Model Infinite M200 PRO; Tecan, Austria). Inhibition of lipase activity was expressed in terms of the percentage reduction in absorbance when porcine pancreatic lipase was incubated with the test compounds, and calculated using the following Equation (4) Inhibition (%) = 100 − [(B − b)/(A − a) × 100](4) where A is the lipase activity without inhibitor, a is the negative control without inhibitor, B is the lipase activity with inhibitor, and b is the negative control with inhibitor. The results are expressed as an average (n = 4).

[2] = DPPH free radical-scavenging activity; settings: for DPPH Radical Scavenging (%): Table S3; for IC50: read-out: Radical-Scavenging Activity Against DPPH IC50
Procedure: DPPH free radical-scavenging properties were evaluated using a previously reported method. Test sample (an extract, a fraction or a compound) in 100 μL of dimethyl sulfoxide (DMSO) (blank: 100 μL of DMSO solution) was added to 100 μL of an ethanolic solution of DPPH (60 μM) in the wells of a 96-well microplate. […] After the sample and the reagents had been mixed gently and incubated for 30 min at room temperature, the absorbance (A) at 540 nm was evaluated using a microplate reader (Model Infinite M200 PRO; Tecan, Austria). The free radical-scavenging activity was calculated as a percentage using the equation DPPH free radical-scavenging activity (%) = [1 − (Asample/Ablank)] × 100.(1)

[3] = ABTS radical-scavenging assay; settings: for ABTS Radical Scavenging (%): Table S4; for IC50: read-out: Radical Scavenging Activity Against ABTS IC50
Procedure: ABTS radical-scavenging activity was measured using a modified method of Re et al.. The ABTS stock solution was diluted in water to a concentration of 7.4 mM. The ABTS radical was produced by mixing ABTS stock solution with 2.45 mM potassium persulfate and incubating in dark for 12 h at room temperature. The ABTS solution was diluted with ethanol to obtain an absorbance (Ablank) of 0.70 ± 0.02 at 415 nm. After adding 95 μL of diluted ABTS solution to 5 μL of the sample, the mixture was incubated at room temperature for 15 min in dark. The absorbance (Asample) at 415 nm was measured using a microplate reader (Model Infinite M200 PRO; Tecan, Austria). The blank was prepared using the same procedure with deionized water instead of the sample. The ABTS radical scavenging activity was calculated as a percentage using the Equation (2) ABTS radical scavenging activity (%) = [1 − (Asample/Ablank)] × 100(2)

[4] = system: human melanocyte tyrosinase; design: method as in PMID 16442796; settings: at 100 μM; cited from earlier work
[5] = system: microphthalmia-associated transcription factor, tyrosinase, and tyrosinase-related proteins; design: method as in PMID 30146944; settings: compound isolated from stem extract of Aurea helianthus; cited from earlier work
tyrosinase [6] = molecular target: tyrosinase; design: method as in PMID 12720364, doi:10.1021/jf980226+; settings: compound isolated from cumin; cited from earlier work
tyrosinase [7] = molecular target: tyrosinase; design: method as in doi:10.1007/s10600-014-1030-9; settings: compound isolated from pollen of Calendula officinalis; cited from earlier work
tyrosinase [8] = test: Tyrosinase inhibition assay (L-DOPA oxidation); assay type: biochemical; settings: at 100 μg/mL
Procedure: The tyrosinase inhibition assay was performed using a modification of the method reported by Nerya et al.. A portion of a sample (20 μL) in DMSO (100 μg/mL) was mixed with 50 μL of 0.1 M potassium phosphate buffer (pH 6.8), to which was added 30 μL of 33 unit/mL tyrosinase and 100 μL of 12 mM L-3,4-dihydroxyphenylalanine (L-DOPA). The solution was mixed gently and the initial absorbance (Ainitial) was recorded at 492 nm using a microplate reader. The reaction mixture was then incubated at 37 °C for 4 min and thereafter the final absorbance (Afinal) was measured at 492 nm. Kojic acid was used as the reference drug. The tyrosinase inhibition activity was calculated as a percentage using the Equation (3) Tyrosinase inhibition activity (%) = [1 − (Afinal/Ainitial)] × 100(3)

| SMILES | Radical-Scavenging Activity Against DPPH IC50 [2] [µg/mL] | DPPH Radical Scavenging (%) ([2]; 1 μg/mL) | DPPH Radical Scavenging (%) ([2]; 2 μg/mL) | DPPH Radical Scavenging (%) ([2]; 5 μg/mL) | DPPH Radical Scavenging (%) ([2]; 10 μg/mL) | DPPH Radical Scavenging (%) ([2]; 25 μg/mL) | DPPH Radical Scavenging (%) ([2]; 50 μg/mL) | DPPH Radical Scavenging (%) ([2]; 100 μg/mL) | DPPH Radical Scavenging (%) ([2]; 250 μg/mL) | DPPH Radical Scavenging (%) ([2]; 500 μg/mL) | IC50 [2] [µM] | Radical Scavenging Activity Against ABTS IC50 [3] [µg/mL] | ABTS Radical Scavenging (%) ([3]; 5 μg/mL) | ABTS Radical Scavenging (%) ([3]; 25 μg/mL) | ABTS Radical Scavenging (%) ([3]; 50 μg/mL) | IC50 [3] [µM] | inhibition at 10 µg/mL ([1]; Table S5) [%] | inhibition at 25 µg/mL ([1]; Table S5) [%] | inhibition at 50 µg/mL ([1]; Table S5) [%] | inhibition at 100 µg/mL ([1]; 100 μg/mL, Table S5) [%] | further results |
| --- | --- | --- | --- | --- | --- | --- | --- | --- | --- | --- | --- | --- | --- | --- | --- | --- | --- | --- | --- | --- | --- |
| CCCCCCCCCCC[C@@H](C[C@@H]1OC(=O)[C@H]1CCCCCC)OC(=O)[C@H](CC(C)C)NC=O [Orlistat, orlistat, reference compound] | – | – | – | – | – | – | – | – | – | – | – | – | – | – | – | – | – | – | – | – | inhibition at 0.1 µg/mL ([1]; 0.10 μg/mL, Table S5): 22.98 ± 0.01%; inhibition at 0.25 µg/mL ([1]; 0.25 μg/mL, Table S5): 27.63 ± 0.01%; inhibition at 0.5 µg/mL ([1]; 0.50 μg/mL, Table S5): 51.17 ± 0.01%; inhibition at 1 µg/mL ([1]; 1.00 μg/mL, Table S5): 54.53 ± 0.02%; inhibition at 100 µg/mL ([1]; at 100 μg/mL): 67.8% |
| COc1cc(/C=C/C(=O)NCCc2ccc(O)cc2)ccc1O [Compound 3, N-trans-feruloyltyramine] | 4.67 | 0.86 ± 2.12 | 14.90 ± 1.63 | 54.29 ±0.30 | 63.25 ± 0.83 | 70.53 ± 1.74 | 78.51 ± 0.06 | 93.65 ± 1.70 | 95.51 ± 0.10 | 97.23 ± 0.33 | 14.9 | 8.19 | 44.18 ± 2.64 | 78.71 ± 0.06 | 82.19 ± 1.38 | 26.1 | 14.76 ± 0.01 | 15.87 ± 0.02 | 16.96 ± 0.02 | 17.28 ± 0.02 | inhibition of human melanocyte tyrosinase [4]: 49 ± 4%; effect on microphthalmia-associated transcription factor, tyrosinase, and tyrosinase-related proteins [5]: downregulate |
| O=Cc1ccc(O)cc1 [Compound 2, p-hydroxybenzaldehyde] | – | 2.93 ± 2.39 | 2.73 ± 2.15 | 3.58 ± 1.79 | 4.43 ± 0.36 | 3.61 ± 1.11 | 3.78 ± 1.40 | 3.89 ±2.50 | 7.28 ± 0.80 | 8.66 ± 0.30 | – | – | 2.03 ± 0.00 | 3.97 ± 0.43 | 8.71 ± 0.21 | – | 15.07 ± 0.01 | 36.64 ± 0.02 | 42.68 ± 0.01 | 52.6 | IC50 [1]: 710 µM; IC50 (tyrosinase [6]): 820 µM; type of tyrosinase inhibition (tyrosinase [6]): non-competitive |
| O=C1O[C@H]([C@@H](O)CO)C(O)=C1O [L-Ascorbic acid, reference compound] | 1.17 | 45.09 ± 1.40 | 87.36 ± 2.24 | 97.41 ± 0.46 | 98.01 ± 0.07 | 97.50 ± 0.53 | 97.28 ± 0.27 | 97.03 ± 0.26 | 98.14 ± 0.15 | – | 6.64 | 3.50 | 70.41 ±0.28 | 99.75 ± 0.06 | 99.77 ± 0.08 | 19.9 | – | – | – | – | Radical-Scavenging Activity Against DPPH (%) ([2]; at 100 μg/mL): 98.5 ± 0.2 ^1%; Radical-Scavenging Activity Against ABTS (%) ([3]; at 100 μg/mL): 99.5 ± 0.3 ^1% |
| COc1cc(/C=C/C(=O)O[C@@H]2C[C@@](OC(=O)/C=C/c3ccc(O)c(OC)c3)(C(=O)O)C[C@@H](O)[C@@H]2O)ccc1O [Compound 1, 1,3-di-O-trans-feruloyl-(−)-quinic acid] | 9.53 | 11.87 ± 0.82 | 24.91 ± 0.78 | 38.70 ± 2.24 | 51.54 ± 1.30 | 82.94 ± 0.56 | 85.92 ± 1.27 | 89.88 ± 1.25 | 100.78 ± 1.46 | 101.99 ± 0.37 | 17.5 | 16.37 | 27.97 ± 4.11 | 66.31 ± 1.84 | 66.38 ± 1.47 | 30.1 | 0.73 ± 0.01 | 21.17 ± 0.01 | 37.95 ± 0.02 | 41.11 ± 0.01 | IC50 [1]: 242 µM; IC50, activity of tyrosinase against diphenolase (tyrosinase [7]): 134.4 ± 4.8 µg/mL; IC50, activity of tyrosinase against monophenolase (tyrosinase [7]): 44.6 ± 1.5 µg/mL |
| O=c1cc(CO)occ1O [Kojic acid] | – | – | – | – | – | – | – | – | – | – | – | – | – | – | – | – | – | – | – | – | Inhibition of L-DOPA Oxidation (%) (tyrosinase [8]): 98.6 ± 0.4 ^2% |
